Values quoted from earlier work as cited in patent publication US20040143023A1, “Materials and methods for synthesizing stilbenes” (priority 2000, published 2004).

Legend:
[1] = in water and saline
[2] = test system: P388 murine leukaemia cell line; conditions: cell line not restated for the trans isomer

For `COc1ccc(/C=C\c2cc(OC)c(OC)c(OC)c2)cc1O` [cis-combretastatin A-4, Z-1-(3′-Hydroxy-4′-methoxyphenyl)-2-(3″,4″,5″-trimethoxyphenyl)ethene], the “toxicity toward tumour vasculature” value (tumour vasculature) is given as “potent and selective toxicity” and the solubility [1] is given as “low solubility”.

In the case of `COc1ccc(/C=C/c2cc(OC)c(OC)c(OC)c2)cc1O` [trans-combretastatin A-4, E-1-(3′-Hydroxy-4′-methoxy)-2-(Trimethoxyphenyl)-2-(3″,4″,5″-trimethoxyphenyl)ethene], the “concentration range in which cell growth is inhibited” value [2] is given as “millimblar range”.
